The text below walks through data of PMC4076210, “Discovery of Novel AKT Inhibitors with Enhanced Anti-Tumor Effects in Combination with the MEK Inhibitor” (PLoS ONE, 2014).

For test [1], the target named is T1, Abl (H396P) (h) (Homo sapiens, UniProt P00519, H396P).
T1 construct: purchased Millipore KinaseProfiler
As to the kind of experiment: Kinase panel. It counts as biochemical.

Test [2] concerns the target T2, BTK(h) (Homo sapiens, UniProt Q06187).
T2 construct: purchased Millipore KinaseProfiler
Put plainly: Kinase panel. The class given is biochemical.

The target of test [3] is T3, CHK2(h) (Homo sapiens, UniProt O96017).
T3 construct: purchased Millipore KinaseProfiler
T3 sequence (O96017 whole entry): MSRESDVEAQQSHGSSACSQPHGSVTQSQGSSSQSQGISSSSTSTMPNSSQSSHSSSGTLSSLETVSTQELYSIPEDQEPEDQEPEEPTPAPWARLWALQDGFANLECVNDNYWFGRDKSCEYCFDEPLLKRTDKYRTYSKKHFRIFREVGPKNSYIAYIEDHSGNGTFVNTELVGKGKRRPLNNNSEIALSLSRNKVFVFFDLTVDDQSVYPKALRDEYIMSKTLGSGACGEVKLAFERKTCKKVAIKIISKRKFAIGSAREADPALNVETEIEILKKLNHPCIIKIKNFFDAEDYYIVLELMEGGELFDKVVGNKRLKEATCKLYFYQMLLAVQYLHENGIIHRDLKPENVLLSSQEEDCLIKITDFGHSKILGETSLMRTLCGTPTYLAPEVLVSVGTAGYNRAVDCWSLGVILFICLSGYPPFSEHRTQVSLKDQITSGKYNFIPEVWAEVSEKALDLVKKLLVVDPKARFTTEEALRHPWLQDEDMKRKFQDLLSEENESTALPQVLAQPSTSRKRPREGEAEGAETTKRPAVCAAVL
Put plainly: Kinase panel. The class given is biochemical.

Test [4] addresses T4, DAPK1(h) (Homo sapiens, UniProt P53355).
T4 construct: purchased Millipore KinaseProfiler
Put plainly: Kinase panel. It counts as biochemical.

The target of test [5] is T5, EphB3(h) (Homo sapiens, UniProt P54753).
T5 construct: purchased Millipore KinaseProfiler
T5 sequence (P54753 34-998): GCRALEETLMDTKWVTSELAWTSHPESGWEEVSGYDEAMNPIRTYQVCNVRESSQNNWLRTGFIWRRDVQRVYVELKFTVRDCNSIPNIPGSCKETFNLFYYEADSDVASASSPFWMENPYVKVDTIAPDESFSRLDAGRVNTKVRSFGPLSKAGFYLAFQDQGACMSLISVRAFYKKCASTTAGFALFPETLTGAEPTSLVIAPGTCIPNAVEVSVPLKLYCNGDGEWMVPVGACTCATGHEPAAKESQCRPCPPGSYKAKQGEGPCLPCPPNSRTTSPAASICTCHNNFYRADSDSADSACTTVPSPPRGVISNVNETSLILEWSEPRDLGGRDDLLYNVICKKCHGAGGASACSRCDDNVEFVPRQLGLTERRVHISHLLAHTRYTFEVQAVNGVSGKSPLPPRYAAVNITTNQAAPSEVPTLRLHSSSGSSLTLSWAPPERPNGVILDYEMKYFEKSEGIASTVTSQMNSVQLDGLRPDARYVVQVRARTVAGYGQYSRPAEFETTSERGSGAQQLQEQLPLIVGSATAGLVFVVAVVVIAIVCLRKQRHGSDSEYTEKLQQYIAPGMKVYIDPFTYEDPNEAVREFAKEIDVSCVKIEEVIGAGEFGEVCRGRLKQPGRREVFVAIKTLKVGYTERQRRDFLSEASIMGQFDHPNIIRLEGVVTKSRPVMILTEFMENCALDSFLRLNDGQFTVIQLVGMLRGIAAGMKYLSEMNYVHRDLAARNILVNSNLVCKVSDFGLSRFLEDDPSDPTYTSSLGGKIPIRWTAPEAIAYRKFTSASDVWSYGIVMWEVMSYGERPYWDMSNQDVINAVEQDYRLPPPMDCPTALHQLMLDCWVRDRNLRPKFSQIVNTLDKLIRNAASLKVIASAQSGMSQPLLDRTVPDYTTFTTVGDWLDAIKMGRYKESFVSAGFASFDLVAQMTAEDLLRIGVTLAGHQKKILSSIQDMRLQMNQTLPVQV
As to the kind of experiment: Kinase panel. It counts as biochemical.

Test [6] has as its target T6, GSK3α(h) (Homo sapiens, UniProt P49840).
T6 construct: purchased Millipore KinaseProfiler
As to the kind of experiment: Kinase panel. It counts as biochemical.

For test [7], the target named is T7, IR(h) (Homo sapiens, UniProt P06213).
T7 construct: purchased Millipore KinaseProfiler
T7 sequence (P06213 28-1382): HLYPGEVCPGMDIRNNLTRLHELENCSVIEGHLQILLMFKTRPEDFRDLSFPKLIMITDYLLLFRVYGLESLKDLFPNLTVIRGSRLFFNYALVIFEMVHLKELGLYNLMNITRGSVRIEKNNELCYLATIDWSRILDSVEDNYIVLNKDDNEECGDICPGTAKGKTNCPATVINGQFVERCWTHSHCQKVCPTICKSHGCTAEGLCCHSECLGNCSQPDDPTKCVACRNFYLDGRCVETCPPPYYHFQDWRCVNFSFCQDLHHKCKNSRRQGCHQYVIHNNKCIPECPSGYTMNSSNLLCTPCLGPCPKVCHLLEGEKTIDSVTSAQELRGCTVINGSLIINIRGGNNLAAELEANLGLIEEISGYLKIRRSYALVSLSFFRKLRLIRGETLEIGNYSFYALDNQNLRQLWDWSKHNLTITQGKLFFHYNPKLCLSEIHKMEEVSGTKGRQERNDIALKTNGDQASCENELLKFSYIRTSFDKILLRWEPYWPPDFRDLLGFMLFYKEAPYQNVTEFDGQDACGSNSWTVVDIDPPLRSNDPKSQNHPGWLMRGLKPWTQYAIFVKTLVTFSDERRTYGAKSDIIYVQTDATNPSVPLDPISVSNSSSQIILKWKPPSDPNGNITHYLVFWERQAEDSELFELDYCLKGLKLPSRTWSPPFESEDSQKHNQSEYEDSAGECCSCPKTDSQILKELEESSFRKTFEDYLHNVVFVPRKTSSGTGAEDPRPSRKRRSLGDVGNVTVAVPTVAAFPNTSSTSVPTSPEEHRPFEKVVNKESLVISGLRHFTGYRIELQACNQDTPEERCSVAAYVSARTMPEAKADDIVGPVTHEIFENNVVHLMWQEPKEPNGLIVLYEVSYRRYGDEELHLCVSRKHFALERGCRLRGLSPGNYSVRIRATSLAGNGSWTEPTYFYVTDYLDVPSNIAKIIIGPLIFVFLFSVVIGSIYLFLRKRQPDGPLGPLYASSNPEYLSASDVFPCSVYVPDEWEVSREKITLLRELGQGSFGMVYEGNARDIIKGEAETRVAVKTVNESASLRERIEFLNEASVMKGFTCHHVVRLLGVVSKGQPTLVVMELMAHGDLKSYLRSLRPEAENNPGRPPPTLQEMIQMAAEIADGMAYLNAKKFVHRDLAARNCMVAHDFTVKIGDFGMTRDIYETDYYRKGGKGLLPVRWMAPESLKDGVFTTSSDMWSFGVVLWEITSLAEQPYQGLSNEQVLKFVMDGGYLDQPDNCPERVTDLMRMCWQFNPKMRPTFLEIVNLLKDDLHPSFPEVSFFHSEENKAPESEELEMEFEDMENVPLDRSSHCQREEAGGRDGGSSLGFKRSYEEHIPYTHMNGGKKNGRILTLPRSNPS
As to the kind of experiment: Kinase panel. The class given is biochemical.

Test [8] concerns MLCK(h). Put plainly: Kinase panel. The class given is biochemical, human.
The target in test [9] is T8, MSSK1(h) (Homo sapiens, UniProt Q9UPE1).
T8 construct: purchased Millipore KinaseProfiler
T8 sequence (Q9UPE1 whole entry): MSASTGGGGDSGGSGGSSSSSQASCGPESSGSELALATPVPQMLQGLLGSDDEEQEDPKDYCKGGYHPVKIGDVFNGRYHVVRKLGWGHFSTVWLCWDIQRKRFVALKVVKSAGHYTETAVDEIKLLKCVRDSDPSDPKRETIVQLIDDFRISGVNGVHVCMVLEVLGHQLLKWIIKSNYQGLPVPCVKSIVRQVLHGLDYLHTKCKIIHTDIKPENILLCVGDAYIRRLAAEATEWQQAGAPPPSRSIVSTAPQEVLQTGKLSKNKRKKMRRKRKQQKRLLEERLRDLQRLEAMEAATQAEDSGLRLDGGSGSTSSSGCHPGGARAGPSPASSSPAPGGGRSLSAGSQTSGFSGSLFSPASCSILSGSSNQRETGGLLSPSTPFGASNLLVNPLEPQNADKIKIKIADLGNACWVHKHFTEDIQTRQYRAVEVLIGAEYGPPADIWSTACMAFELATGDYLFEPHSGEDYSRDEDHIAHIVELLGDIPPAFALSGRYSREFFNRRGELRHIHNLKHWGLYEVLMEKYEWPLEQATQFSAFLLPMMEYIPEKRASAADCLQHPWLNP
Put plainly: Kinase panel. The class given is biochemical.

The target of test [10] is T9, NEK3(h) (Homo sapiens, UniProt P51956).
T9 construct: purchased Millipore KinaseProfiler
T9 sequence (P51956 1-506): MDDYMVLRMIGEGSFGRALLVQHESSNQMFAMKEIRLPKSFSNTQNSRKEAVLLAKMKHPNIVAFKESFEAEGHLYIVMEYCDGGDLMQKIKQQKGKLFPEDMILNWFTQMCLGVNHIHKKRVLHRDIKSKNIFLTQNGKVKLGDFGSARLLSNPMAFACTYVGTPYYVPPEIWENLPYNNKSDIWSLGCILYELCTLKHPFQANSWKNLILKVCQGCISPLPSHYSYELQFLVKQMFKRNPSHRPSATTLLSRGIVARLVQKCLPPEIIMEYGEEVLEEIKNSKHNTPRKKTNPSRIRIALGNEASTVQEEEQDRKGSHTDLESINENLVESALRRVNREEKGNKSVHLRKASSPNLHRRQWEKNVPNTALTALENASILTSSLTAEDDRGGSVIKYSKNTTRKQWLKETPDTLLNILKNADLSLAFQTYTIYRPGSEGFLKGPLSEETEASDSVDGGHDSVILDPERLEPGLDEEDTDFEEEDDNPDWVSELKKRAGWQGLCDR
As to the kind of experiment: Kinase panel. It counts as biochemical.

For test [11], the target named is T10, SAPK2a(T106M)(h) (Homo sapiens, UniProt Q16539, T106M).
T10 construct: purchased Millipore KinaseProfiler
T10 sequence (Q16539 whole entry T106M): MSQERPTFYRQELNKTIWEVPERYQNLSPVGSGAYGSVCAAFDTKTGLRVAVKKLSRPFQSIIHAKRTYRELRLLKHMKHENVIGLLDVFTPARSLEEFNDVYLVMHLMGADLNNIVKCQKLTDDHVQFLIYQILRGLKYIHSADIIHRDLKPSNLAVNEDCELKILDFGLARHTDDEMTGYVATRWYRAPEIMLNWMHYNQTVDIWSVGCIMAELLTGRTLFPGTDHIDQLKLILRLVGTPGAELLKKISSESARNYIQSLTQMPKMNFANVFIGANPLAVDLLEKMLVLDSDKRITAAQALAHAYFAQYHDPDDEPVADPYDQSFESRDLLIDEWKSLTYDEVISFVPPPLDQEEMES
As to the kind of experiment: Kinase panel. The class given is biochemical.

Test [12] deals with pGSK-3β in BT474. As to the kind of experiment: phospho-GSK3β ELISA. The class given is cell-based. Particulars: Homo sapiens, BT-474; BT474, 1 h, mean ± std dev. How it is done: (§1) ELISA plates were prepared by coating with anti-GSK3β antibody (R&D Systems), and blocked with 5% Milk/0.1% Tween-20. Cells were seeded at 25,000 cells/96-well overnight and treated with DMSO or various concentrations of drug for 1 h. Cells were lysed in 20 mM Tris-HCl (pH 8.0), 137 mM NaCl, 2 mM EDTA, 10% glycerol and 1% Triton X-100 and lysates transferred to ELISA plates and incubated overnight. The plates were washed and incubated with rabbit anti-phospho-GSK3β (Ser9) antibody (R&D Systems) for 1 h. After washing, plates were developed using HRP-linked anti-rabbit IgG, and 3,3′,5,5′-tetramethylbenzidine as substrate. Absorption was measured in a microplate spectrophotometer at 450 nm. The phospho-PRAS40 ELISA followed similar methodology as above with the exception of using a commercially available PRAS40 (pThr246) kit (Biosource) and following manufacturers' instructions for the ELISA analysis.
On the technique in general: An ELISA detects its analyte on a solid surface through an enzyme-linked reagent.

For test [13], the system named is pGSK-3β in LNCaP. Put plainly: phospho-GSK3β ELISA. The class given is cell-based. Particulars: Homo sapiens, 1 h, mean ± std dev. As to the method: as §1

Where two headings read alike, the source gives them in different places.

T4 sequence (P53355 whole entry): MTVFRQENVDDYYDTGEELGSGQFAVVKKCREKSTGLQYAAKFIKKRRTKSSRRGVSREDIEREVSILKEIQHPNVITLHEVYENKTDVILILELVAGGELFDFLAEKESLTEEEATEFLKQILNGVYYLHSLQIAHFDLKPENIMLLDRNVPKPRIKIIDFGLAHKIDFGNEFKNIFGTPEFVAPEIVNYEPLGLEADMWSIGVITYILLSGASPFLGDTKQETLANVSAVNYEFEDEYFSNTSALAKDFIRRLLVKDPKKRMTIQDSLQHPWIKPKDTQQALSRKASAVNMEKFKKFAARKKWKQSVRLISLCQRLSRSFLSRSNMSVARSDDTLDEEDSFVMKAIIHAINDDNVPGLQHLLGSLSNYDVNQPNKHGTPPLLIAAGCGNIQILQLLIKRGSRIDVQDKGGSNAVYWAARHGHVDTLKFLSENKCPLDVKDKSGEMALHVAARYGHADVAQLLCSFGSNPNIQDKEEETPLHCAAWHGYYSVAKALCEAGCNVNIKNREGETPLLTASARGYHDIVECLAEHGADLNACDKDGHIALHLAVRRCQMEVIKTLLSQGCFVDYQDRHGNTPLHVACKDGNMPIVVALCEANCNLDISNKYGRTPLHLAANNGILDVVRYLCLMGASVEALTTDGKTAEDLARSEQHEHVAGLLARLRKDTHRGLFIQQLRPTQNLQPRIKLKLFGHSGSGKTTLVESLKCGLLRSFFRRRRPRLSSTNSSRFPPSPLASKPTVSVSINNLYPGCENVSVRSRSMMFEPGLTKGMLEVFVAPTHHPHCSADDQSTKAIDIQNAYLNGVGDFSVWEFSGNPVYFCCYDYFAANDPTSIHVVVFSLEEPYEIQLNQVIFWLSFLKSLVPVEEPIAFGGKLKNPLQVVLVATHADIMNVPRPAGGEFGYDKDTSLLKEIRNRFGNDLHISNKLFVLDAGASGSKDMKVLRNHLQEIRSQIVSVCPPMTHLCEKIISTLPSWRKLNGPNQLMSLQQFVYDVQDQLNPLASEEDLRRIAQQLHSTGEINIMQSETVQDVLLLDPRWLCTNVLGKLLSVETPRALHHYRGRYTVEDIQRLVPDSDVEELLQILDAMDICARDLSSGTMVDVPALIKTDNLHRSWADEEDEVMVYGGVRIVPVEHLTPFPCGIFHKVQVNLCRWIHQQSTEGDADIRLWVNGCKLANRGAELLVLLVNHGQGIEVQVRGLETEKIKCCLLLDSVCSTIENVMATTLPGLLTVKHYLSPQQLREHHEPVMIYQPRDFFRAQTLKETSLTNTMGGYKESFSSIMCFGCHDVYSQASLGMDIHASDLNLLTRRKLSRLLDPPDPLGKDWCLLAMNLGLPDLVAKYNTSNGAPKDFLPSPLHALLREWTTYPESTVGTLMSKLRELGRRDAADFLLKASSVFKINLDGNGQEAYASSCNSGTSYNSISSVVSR
T6 sequence (P49840 whole entry): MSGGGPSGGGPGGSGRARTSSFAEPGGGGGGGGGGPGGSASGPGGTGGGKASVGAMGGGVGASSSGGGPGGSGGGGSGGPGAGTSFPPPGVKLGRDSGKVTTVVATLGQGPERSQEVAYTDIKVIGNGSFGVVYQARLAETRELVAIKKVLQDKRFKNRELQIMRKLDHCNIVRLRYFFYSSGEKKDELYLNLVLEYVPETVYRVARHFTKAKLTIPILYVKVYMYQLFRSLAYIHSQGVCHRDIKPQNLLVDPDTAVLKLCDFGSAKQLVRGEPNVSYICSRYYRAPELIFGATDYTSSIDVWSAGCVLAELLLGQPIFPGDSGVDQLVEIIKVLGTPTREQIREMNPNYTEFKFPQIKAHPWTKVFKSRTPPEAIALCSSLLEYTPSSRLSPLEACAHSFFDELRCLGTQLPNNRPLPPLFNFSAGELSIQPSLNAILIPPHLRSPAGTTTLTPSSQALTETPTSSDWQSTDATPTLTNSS

By inhibition is commonly meant the drop in the measured response relative to a control, in per cent. As usually defined, the % Inhibition is the change of the read-out against control, counted positive when it falls. A high value points to a response far below the control. The IC50 is the concentration needed to halve the response being measured. Read a low IC50 as greater potency in that assay. Consider `Cn1ncc(Cl)c1-c1cc(C(=O)N[C@H](CN)Cc2cccc(F)c2)sc1Cl` [GSK2110183], for which the inhibition at 0.5 µM in test [1] was -2%; in test [2], 2%; in test [3], 39%; in [4], 1%; in [5], 12%; in [6], -2%. In addition, the inhibition at 0.5 µM in [7] is 35%; in test [9], -1%; in test [10], -14%; in test [11] it was -5%. Moreover, the inhibition at 10 µM in test [1] is 10%; in [2], 4%; in test [3] it was 97%; in test [4], 28%; in test [5], -9%; in test [6] it was -1%. The inhibition at 10 µM is 32% in test [7], 12% in test [9], -10% in test [10] and -6% in test [11]. Besides, the results for the “% Inhibition” value in test [8] (0.5 µM) and in test [8] (10 µM) were 4% and 60%, respectively. For the same molecule, the 50% inhibitory concentration (IC50) worked out at 316 ± 91 nM in test [12] and 76 ± 16 nM in test [13].

For the molecule `Cn1ncc(Cl)c1-c1cc(C(=O)N[C@H](CN)Cc2ccc(F)c(F)c2)oc1Cl` [GSK2141795], the inhibition at 0.5 µM in test [1] (0.5 µM, read-out: % Inhibition) is 4%; in test [2] (0.5 µM, read-out: % Inhibition) it was 7%; in test [3] (0.5 µM, read-out: % Inhibition), 36%; in test [4] (0.5 µM, read-out: % Inhibition), 1%; in test [5] (0.5 µM, read-out: % Inhibition), -2%; in test [6] (0.5 µM, read-out: % Inhibition), -26%. In addition, the inhibition at 0.5 µM in test [7] (0.5 µM, read-out: % Inhibition) is -8%; in test [9] (0.5 µM, read-out: % Inhibition), -6%; in test [10] (0.5 µM, read-out: % Inhibition) it was 6%; in [11] (0.5 µM, read-out: % Inhibition) it was -15%. Moreover, the inhibition at 10 µM in test [1] (10 µM, read-out: % Inhibition) was 1%; in test [2] (10 µM, read-out: % Inhibition), 6%; in test [3] (10 µM, read-out: % Inhibition), 91%; in test [4] (10 µM, read-out: % Inhibition), 41%; in test [5] (10 µM, read-out: % Inhibition), 9%; in [6] (10 µM, read-out: % Inhibition), -19%. In addition, the inhibition at 10 µM in test [7] (10 µM, read-out: % Inhibition) was 41%; in [9] (10 µM, read-out: % Inhibition), 10%; in test [10] (10 µM, read-out: % Inhibition), 12%; in test [11] (10 µM, read-out: % Inhibition) it was -33%. Besides, the “% Inhibition” value in [8] (0.5 µM) is 5%; in [8] (10 µM), 58%. The IC50 in [12] amounted to 143 ± 21 nM; in test [13], 34 ± 5 nM.
